We go through 1 compound from BindingDB's records for patent US9394289 (Janssen Pharmaceutica, 2016).

The target in the test is Macrophage colony-stimulating factor 1 receptor (Homo sapiens, UniProt P07333). Kind of test: Fluorescence Polarization Competition Immunoassay. The conditions noted are these: pH 7.5; 25 °C. The protocol: The assay buffer used was 100 mM 4-(2-hydroxyethyl)piperazine 1-ethanesulfonic acid (HEPES), pH 7.5, 1 mM 1,4-dithio-DL-threitol (DTT), 0.01% (v/v) Tween-20. Compounds were diluted in assay buffer containing 4% dimethylsulfoxide (DMSO) just prior to the assay. To each well, 5 μL of compound were added followed by the addition of 3 μL of a mix containing 33 nM c-fms (Johnson & Johnson PRD) and 16.7 mM MgCl2 (Sigma) in assay buffer. The kinase reaction was initiated by adding 2 μL of 5 mM ATP (Sigma) in assay buffer. The final concentrations in the assay were 10 nM c-fms, 1 mM ATP, 5 mM MgCl2, 2% DMSO. Control reactions were ran in each plate: in positive and negative control wells, assay buffer (made 4% in DMSO) was substituted for the compound; in addition, positive control wells received 1.2 μL of 50 mM ethylenediaminetetraaceticacid (EDTA). The plates were incubated at room temperature for 45 min. At the end of the incubation, the reaction was quenched with 1.2 μL of 50 mM EDTA (EDTA was not added to the positive control wells at this point; see above). Following a 5-min incubation, each well received 10 μL of a 1:1:3 mixture of anti-phosphotyrosine antibody, 10×, PTK green tracer, 10× (vortexed), FP dilution buffer, respectively (all from PanVera, cat. #P2837). The plate was covered, incubated for 30 min at room temperature and the fluorescence polarization was read on the Analyst. […]
A general note: Fluorescence polarisation rises when a labelled molecule tumbles more slowly, as on binding a larger partner.

Sequence of Macrophage colony-stimulating factor 1 receptor (P07333 whole entry): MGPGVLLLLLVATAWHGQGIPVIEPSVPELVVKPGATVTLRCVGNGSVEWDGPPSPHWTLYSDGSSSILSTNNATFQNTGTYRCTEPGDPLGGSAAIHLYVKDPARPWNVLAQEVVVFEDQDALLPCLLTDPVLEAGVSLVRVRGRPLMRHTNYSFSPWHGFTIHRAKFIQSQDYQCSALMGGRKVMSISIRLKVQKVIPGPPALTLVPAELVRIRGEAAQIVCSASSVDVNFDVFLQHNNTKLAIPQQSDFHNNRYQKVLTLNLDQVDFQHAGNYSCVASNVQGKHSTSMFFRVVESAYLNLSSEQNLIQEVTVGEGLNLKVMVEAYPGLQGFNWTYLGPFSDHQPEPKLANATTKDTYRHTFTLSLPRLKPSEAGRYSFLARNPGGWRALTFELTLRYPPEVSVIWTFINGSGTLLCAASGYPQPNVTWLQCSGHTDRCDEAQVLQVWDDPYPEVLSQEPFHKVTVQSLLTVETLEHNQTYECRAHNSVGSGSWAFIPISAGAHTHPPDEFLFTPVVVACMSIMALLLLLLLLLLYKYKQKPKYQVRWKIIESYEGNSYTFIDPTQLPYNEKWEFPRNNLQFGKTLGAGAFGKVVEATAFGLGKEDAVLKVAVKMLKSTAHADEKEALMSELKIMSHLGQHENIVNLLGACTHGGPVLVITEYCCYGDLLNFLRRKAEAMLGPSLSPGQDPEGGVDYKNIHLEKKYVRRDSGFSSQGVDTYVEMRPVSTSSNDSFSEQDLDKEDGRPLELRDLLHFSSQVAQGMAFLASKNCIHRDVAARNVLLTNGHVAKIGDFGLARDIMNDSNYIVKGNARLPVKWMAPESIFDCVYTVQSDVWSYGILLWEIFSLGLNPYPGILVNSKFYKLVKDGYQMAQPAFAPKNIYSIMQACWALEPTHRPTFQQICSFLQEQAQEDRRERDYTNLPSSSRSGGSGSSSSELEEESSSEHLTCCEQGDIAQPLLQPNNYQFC

As to `N#Cc1c[nH]c(C(=O)Nc2ccc(C3(O)CCS(=O)(=O)CC3)cc2C2=CCCCC2)n1` [US9394289, 15], the IC50 was determined as 2.9 nM.

As usually defined, the IC50 is the point on the concentration scale where inhibition reaches its midpoint. A high value points to a need for much substance.
